Test results from patent publication US12037344B2, “NLRP3 modulators” (INNATE TUMOR IMMUNITY, INC., priority 2018, dated 2024).
Where two headings read alike, the source gives them in different places.

What was measured:
THP-1 cells = experiment: Measurement of IL-1β production, hTRF protocol (second alternative procedure), THP-1 cells; assay type: cell-based, human
Outline: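 THP-1 cells differentiated overnight with 50 ng/ml PMA, then plated at 50,000 cells/well in RPMI with 2% FBS onto serial compound dilutions (top final concentration 10 μM) for 2 hours at 37° C. Supernatant IL-1β measured by hTRF (antibodies at 1:40, overnight at 4° C), read at 665/615 nm against a standard curve.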

TLR7 = target: T1, TLR7 (Homo sapiens, UniProt Q9NYK1); experiment: In vitro human TLR7 binding reporter assay (HEK-Blue, NF-kB/AP1-inducible SEAP); assay type: cell-based; details: read-out: TLR7 Agonist EC50
T1 construct: human HEK-Blue cells co-expressing a TLR7 or TLR8 gene
T1 sequence (Q9NYK1 27-1049): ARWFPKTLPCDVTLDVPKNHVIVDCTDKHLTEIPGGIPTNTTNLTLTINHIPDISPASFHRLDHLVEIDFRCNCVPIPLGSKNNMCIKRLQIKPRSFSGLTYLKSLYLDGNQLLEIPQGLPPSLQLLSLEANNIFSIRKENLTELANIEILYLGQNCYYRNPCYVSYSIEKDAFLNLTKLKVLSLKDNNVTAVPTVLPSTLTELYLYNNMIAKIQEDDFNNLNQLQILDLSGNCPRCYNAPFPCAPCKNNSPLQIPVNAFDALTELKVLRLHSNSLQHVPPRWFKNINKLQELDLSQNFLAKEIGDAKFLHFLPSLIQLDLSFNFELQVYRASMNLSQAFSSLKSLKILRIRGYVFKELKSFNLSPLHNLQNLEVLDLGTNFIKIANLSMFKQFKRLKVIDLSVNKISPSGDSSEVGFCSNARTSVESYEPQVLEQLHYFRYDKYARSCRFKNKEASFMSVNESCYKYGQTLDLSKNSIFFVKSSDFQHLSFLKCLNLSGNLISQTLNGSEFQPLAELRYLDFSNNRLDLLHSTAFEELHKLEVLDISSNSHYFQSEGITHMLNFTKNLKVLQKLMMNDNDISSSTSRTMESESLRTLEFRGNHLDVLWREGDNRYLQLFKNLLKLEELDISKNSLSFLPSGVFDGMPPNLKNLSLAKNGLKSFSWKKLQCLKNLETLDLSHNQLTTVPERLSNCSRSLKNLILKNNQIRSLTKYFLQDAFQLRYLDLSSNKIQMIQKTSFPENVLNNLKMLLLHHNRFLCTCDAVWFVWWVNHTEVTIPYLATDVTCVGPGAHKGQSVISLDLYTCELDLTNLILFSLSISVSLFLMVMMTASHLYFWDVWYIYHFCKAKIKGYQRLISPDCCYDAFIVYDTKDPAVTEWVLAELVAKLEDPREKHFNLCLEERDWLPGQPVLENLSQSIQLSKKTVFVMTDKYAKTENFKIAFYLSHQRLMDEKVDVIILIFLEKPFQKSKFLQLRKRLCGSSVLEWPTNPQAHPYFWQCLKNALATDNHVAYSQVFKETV
Outline: (§1)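 EC50s come from NF-kB/AP1-driven SEAP secretion in HEK-Blue cells expressing TLR7 or TLR8, measured with Quanti-Blue after an 18 h compound incubation. Maximal response is defined by a 50 μM reference standard.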

TLR8 = target: T2, TLR8 (Homo sapiens, UniProt Q9NR97); experiment: In vitro human TLR8 binding reporter assay (HEK-Blue, NF-kB/AP1-inducible SEAP); assay type: cell-based; details: read-out: TLR8 Agonist EC50
T2 construct: human HEK-Blue cells co-expressing a TLR7 or TLR8 gene
T2 sequence (Q9NR97 27-1041): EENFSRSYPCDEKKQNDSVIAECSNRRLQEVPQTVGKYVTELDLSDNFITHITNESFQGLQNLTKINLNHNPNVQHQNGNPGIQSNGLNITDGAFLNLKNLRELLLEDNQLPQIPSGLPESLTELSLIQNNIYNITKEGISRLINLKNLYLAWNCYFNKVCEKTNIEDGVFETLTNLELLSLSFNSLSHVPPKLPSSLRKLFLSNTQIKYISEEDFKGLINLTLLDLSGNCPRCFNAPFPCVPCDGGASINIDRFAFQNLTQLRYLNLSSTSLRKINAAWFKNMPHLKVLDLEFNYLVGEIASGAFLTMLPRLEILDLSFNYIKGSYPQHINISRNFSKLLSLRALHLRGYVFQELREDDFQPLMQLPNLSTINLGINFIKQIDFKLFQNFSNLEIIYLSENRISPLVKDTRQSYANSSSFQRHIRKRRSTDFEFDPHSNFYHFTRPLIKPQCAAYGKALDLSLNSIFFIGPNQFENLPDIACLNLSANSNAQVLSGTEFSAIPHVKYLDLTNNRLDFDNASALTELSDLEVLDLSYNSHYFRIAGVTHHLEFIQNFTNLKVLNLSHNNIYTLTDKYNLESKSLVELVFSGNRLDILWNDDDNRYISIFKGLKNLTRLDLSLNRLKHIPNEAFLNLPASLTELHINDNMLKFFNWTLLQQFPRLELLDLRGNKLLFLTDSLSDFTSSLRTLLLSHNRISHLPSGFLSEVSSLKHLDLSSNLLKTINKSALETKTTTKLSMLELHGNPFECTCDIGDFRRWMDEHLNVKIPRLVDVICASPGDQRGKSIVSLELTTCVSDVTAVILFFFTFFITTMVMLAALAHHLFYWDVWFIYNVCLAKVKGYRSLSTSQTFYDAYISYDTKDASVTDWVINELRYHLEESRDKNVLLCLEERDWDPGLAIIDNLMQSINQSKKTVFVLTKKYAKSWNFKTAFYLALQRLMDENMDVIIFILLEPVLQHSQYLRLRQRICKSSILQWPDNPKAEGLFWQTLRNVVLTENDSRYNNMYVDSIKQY
Outline: as §1

[1] = Homo sapiens, THP-1, IL-1β production, human, read-out: NLRP3 hILIB EC50
[2] = Homo sapiens, THP-1, IL-1β production, human cells, read-out: NLRP3 hILIB EC50
[3] = Homo sapiens, THP-1, read-out: NLRP3 hILIB EC50

SMILES | EC50 (THP-1 cells; [1]) | EC50 (TLR7; activity range class) | EC50 (TLR8; activity range class) | EC50 (THP-1 cells; [2]) | EC50 (TLR7; activity range) | EC50 (TLR8; activity range) | EC50 (THP-1 cells; [3]) | EC50 (THP-1 cells; IL-1β production, human, read-out: NLRP3 hILIB EC50)
COC[C@H](O)Cn1cc2c(N)nc3cc(-c4cc[nH]n4)ccc3c2n1 [Example 372] | 0.88 µM | > 100 µM | > 100 µM |  |  |  |  | 
Nc1nc2cc(-c3cc[nH]n3)ccc2c2nn(C[C@H](O)CO)cc12 [Example 364] | 1.47 µM | > 100 µM | > 100 µM |  |  |  |  | 
CC(C)(Cn1cc2c(N)nc3cc(-c4ccn[nH]4)ccc3c2n1)C(=O)N1CC(F)(F)C1 [Example 599] |  |  |  | 2.18 µM | > 100 µM | > 100 µM |  | 
Nc1nc2cc(-c3ccn[nH]3)ccc2c2nn(CCCNS(=O)(=O)C3CC3)cc12 [Example 589] |  |  |  | 2.62 µM | > 100 µM | > 100 µM |  | 
Nc1nc2cc(-c3cc[nH]n3)ccc2c2cn(CCNS(=O)(=O)c3ccccc3)nc12 [Example 114, N-{2-[4-amino-7-(1H-pyrazol-3-yl)-2H-pyrazolo[3,4-c]quinolin-2-yl]ethyl}benzenesulfonamide] |  | > 100 µM | > 100 µM |  |  |  | 4.84 µM | 
CS(=O)(=O)NCCn1cc2c(N)nc3cc(-c4cc[nH]n4)ccc3c2n1 [Example 206, N-(2-(4-amino-7-(1H-pyrazol-3-yl)-2H-pyrazolo[4,3-c]quinolin-2-yl)ethyl)methanesulfonamide] | 0.26 µM | > 100 µM | > 100 µM |  |  |  |  | 
CC(C(=O)NCCCO)n1cc2c(N)nc3cc(-c4ccn[nH]4)ccc3c2n1 (stereo not drawn) [Example 572] |  |  |  | 4.41 µM | > 100 µM | > 100 µM |  | 
Nc1nc2cc(-c3cc[nH]n3)ccc2c2nn(CCC(=O)N3CC(F)(F)C3)cc12 [Example 503] |  |  |  | 2.58 µM | > 100 µM | > 100 µM |  | 
Cc1nccc(C(=O)NCCn2cc3c(n2)c(N)nc2cc(-c4cc[nH]n4)ccc23)n1 [Example 50] | 1.43 µM | > 100 µM | > 100 µM |  |  |  |  | 
CC(O)Cn1cc2c(n1)c(N)nc1cc(-c3ccn[nH]3)ccc12 (stereo not drawn) [Example 451] |  |  |  | 1.26 µM | > 100 µM | > 100 µM |  | 
CCN(CC)CCNC(=O)C(C)n1cc2c(N)nc3cc(-c4ccn[nH]4)ccc3c2n1 (stereo not drawn) [Example 573] |  |  |  | 6.59 µM | > 100 µM | > 100 µM |  | 
Nc1nc2cc(-c3cc[nH]n3)ccc2c2nn(CCCOC(F)(F)F)cc12 [Example 350] | 0.35 µM | > 100 µM | > 100 µM |  |  |  |  | 
COC(C)Cn1cc2c(N)nc3cc(-c4cc[nH]n4)ccc3c2n1 (single isomer, unassigned) [Example 347] |  | > 100 µM | > 100 µM |  |  |  |  | 0.3 µM
Nc1nc2cc(-c3cc[nH]n3)ccc2c2cn(CCNC(=O)c3cc(CO)ccn3)nc12 [Example 57] | 2.21 µM | > 100 µM | > 100 µM |  |  |  |  | 
Nc1nc2cc(-c3cc[nH]n3)ccc2c2nn(CCOC(F)(F)F)cc12 [Example 352] | 0.08 µM | > 100 µM | > 100 µM |  |  |  |  | 
Cc1nc(C(=O)NCCn2cc3c(n2)c(N)nc2cc(-c4cc[nH]n4)ccc23)co1 [Example 76] | 0.33 µM | > 100 µM | > 100 µM |  |  |  |  | 
Nc1nc2cc(-c3cc[nH]n3)ccc2c2cn(CCN3CC4COCC4C3)nc12 (stereo not drawn) [Example 30, 2-(2-{hexahydro-1H-furo[3,4-c]pyrrol-5-yl}ethyl)-7-(1H-pyrazol-3-yl)-2H-pyrazolo[3,4-c]quinolin-4-amine] | 0.77 µM | > 100 µM | > 100 µM |  |  |  |  | 
Nc1nc2cc(-c3cc[nH]n3)ccc2c2cn(CCNC(=O)c3ncc(C(F)(F)F)cc3F)nc12 [Example 91] | 1.17 µM | > 100 µM | 20 to 100 µM |  |  |  |  | 
Nc1nc2cc(-c3cc[nH]n3)ccc2c2[nH]c(CN[C@H]3CC[C@@H](CO)C3)cc12 [Example 478] |  |  |  | 0.35 µM | > 100 µM | > 100 µM |  | 
COC(=O)c1cccc(C(=O)NCCn2cc3c(n2)c(N)nc2cc(-c4cc[nH]n4)ccc23)n1 [Example 63] | 1.61 µM | > 100 µM | > 100 µM |  |  |  |  | 
Cc1ccccc1CNCCn1cc2c(n1)c(N)nc1cc(-c3cc[nH]n3)ccc12 [Example 105, 2-(2-{[(2-methylphenyl)methyl]amino}ethyl)-7-(1H-pyrazol-3-yl)-2H-pyrazolo[3,4-c]quinolin-4-amine] | 0.98 µM | 20 to 100 µM | > 100 µM |  |  |  |  | 
Nc1nc2cc(-c3cc[nH]n3)ccc2c2cn(CCNC(=O)Oc3ccccc3)nc12 [Example 117, phenyl N-{2-[4-amino-7-(1H-pyrazol-3-yl)-2H-pyrazolo[3,4-c]quinolin-2-yl]ethyl}carbamate] |  | > 100 µM | 20 to 100 µM |  |  |  | 0.57 µM | 
CN1CCOC(Cn2ncc3c(N)nc4cc(-c5cc[nH]n5)ccc4c32)C1 (stereo not drawn) [Example 231] | 1.21 µM | > 100 µM | > 100 µM |  |  |  |  | 
Nc1nc2cc(-c3cc[nH]n3)ccc2c2cn(CCNCc3ccccc3)nc12 [Example 108] | 0.91 µM | 20 to 100 µM | 20 to 100 µM |  |  |  |  | 
Nc1nc2cc(-c3cc[nH]n3)ccc2c2nn(C3CCOC3)cc12 (racemic) [Example 237] | 0.09 µM | > 100 µM | > 100 µM |  |  |  |  | 
